Data from patent US11945834B2, “Cyclic dinucleotides as anticancer agents” (BRISTOL-MYERS SQUIBB COMPANY, priority 2018, dated 2024).
Where two headings read alike, the source gives them in different places.

Legend:
[1] = system: IRF pathway in THP1-Dual cells (STING agonists); assay: STING THP1 reporter assay, IRF pathway (Lucia luciferase); type: cell-based; conditions: 10% human plasma, luciferase readout, 100% = 100 μM cGAMP, read-out: THP1 Reporter Assays EC50 (μM) IRF3
Source text: (§1) THP1-Dual™ cells were derived from the human THP-1 monocyte cell line by stable integration of two inducible reporter constructs. To this end, THP1-Dual™ cells allow the simultaneous study of the NF-κB pathway, by monitoring the activity of SEAP, and the IRF pathway by assessing the activity of a secreted luciferase (Lucia). Both reporter proteins are readily measurable in the cell culture supernatant when using QUANTI-Blue™, a SEAP detection reagent, and QUANTI-Luc™, a luciferase detection reagent.
(§2) THP1-Dual™ cells induce the activation of NF-κB in response to STING agonists. They also trigger the IRF pathway upon stimulation with STING agonists, such as cGAMP. Here, the THP-1-Dual cells were used to assess STING binders for function on the cellular level.
(§3) Serial dilutions of compounds in DMSO were added to low volume 384 well plates at 100 nl/well using an ECHO acoustic dispenser (Labcyte, model 550) to achieve final starting concentration of 100 μM in cell suspension. THP-1 Dual™ STING reporter cells (Invivogen, Dual cells cat #THPD-nfis) were added to the plates with compounds at 15,000 cells in 10 μL per well in RPMI media (Gibco, cat #11875) containing 10% human plasma in a low volume 384-well black wall clear bottom tissue culture plate (Corning, cat #3542) for SEAP assay and low volume solid white plate (Corning, cat #3826) for luciferase assay. One column of the plate was reserved for treatment with cGAMP at 100 μM for 100% activation calculation and one column for no treatment (DMSO only) for baseline activation. Plates were then incubated in 37° C. incubator at 5% CO2 for 20 hours.
(§4) In the SEAP assay, 5 μl of 2× QuantiBlue (Invivogen, cat #Rep-qb2) is added to 384 well black plates seeded with THP1 cells and incubated at 37° C. for 2 hours. Plates were read on the Envision (Perkin Elmer) at 620 nm wavelength (OD620). In the luciferase assay, 5 μl of Quantiluc (Invivogen, Rep-qlc2) is added to white 384 well plates seeded with THP1 cells and read at 5 minutes on the Envision (Perkin Elmer) using a luminescence protocol (RLU). For both cell lines, 100% activation was determined by value (RLU) of THP-1 Dual STING cells stimulated with 100 μM cGAMP (Invivogen, cat #TLRL-NACGA23-5).

[2] = target: T1, STING AQ: His-TVMV-S-hSTING(155-341)-G230A-R293Q (Homo sapiens, UniProt Q86WV6, G230A/H232R/R293Q); assay: STING HTRF binding assay, STING AQ; conditions: 20 nM His-tagged STING cytoplasmic domain AQ, 40 nM fluorescein-labeled cGAMP analog probe, one hour; read-out: HTRF Binding Assays IC50 (μM) AQ
T1 construct: STING AQ: His-TVMV-S-hSTING(155-341)-G230A-R293Q
T1 sequence (Q86WV6 with tags, fused parts or gaps G230A/H232R/R293Q): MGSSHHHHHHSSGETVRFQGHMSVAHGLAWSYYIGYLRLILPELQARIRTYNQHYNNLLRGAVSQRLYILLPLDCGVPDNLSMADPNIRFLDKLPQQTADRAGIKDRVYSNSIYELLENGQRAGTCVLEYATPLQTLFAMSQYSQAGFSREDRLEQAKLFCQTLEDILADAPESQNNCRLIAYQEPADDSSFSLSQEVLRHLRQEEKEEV
Protocol: (§5) A time resolved FRET-based competition binding assay was used to assess test article binding to STING WT and STING AQ. His-tagged STING cytoplasmic domain (WT or AQ) at a concentration of 20 nM was incubated with 2.5 nM Tb-labeled anti-His antibody, test compound, and fluorescein-labeled cGAMP analog probe (BioLog cat. no. C195) at a concentration of 200 nM (STING WT) or 40 nM (STING AQ) in PBS containing 0.005% Tween-20 and 0.1% BSA for one hour. Fluorescence at 495 nm and 520 nm was measured using an EnVision microplate reader to quantify FRET between Tb-labeled anti-His antibody and fluorescein-labeled probe. Background was defined as the signal obtained in the absence of STING protein, and background subtracted FRET ratios were normalized to the maximum signal obtained in the absence of test compound. These values were converted to a percent inhibition. Percent inhibition was determined for test compounds at 11 concentrations. The IC50, defined as the concentration of competing test compound needed to reduce specific binding of the probe by 50%, was calculated using the 4 parameter logistic equation to fit the data

[3] = system: NF-κB pathway in THP1-Dual cells (STING agonists); assay: STING THP1 reporter assay, NF-κB pathway (SEAP); type: cell-based; conditions: 10% human plasma, SEAP readout, 100% = 100 μM cGAMP, read-out: THP1 Reporter Assays EC50 (μM) NFkB
Source text: as §1, §2, §3, §4

[4] = target: T2, STING WT: His-TVMV-S-hSTING(155-341)-H232R (Homo sapiens, UniProt Q86WV6, H232R); assay: STING HTRF binding assay, STING WT; conditions: 20 nM His-tagged STING cytoplasmic domain WT, 200 nM fluorescein-labeled cGAMP analog probe, one hour; read-out: HTRF Binding Assays IC50 (μM) WT
T2 construct: STING WT: His-TVMV-S-hSTING(155-341)-H232R
T2 sequence (Q86WV6 with tags, fused parts or gaps H232R): as the sequence (Q86WV6 with tags, fused parts or gaps G230A/H232R/R293Q) above, with A99G, Q162R counted along it
Protocol: as §5

C=C1[C@H]2OP(=O)(S)OC[C@H]3O[C@@H](n4cnc5c(N)ncnc54)[C@H](F)[C@@H]3OP(=O)(S)OC[C@H]1O[C@H]2c1ccnc(C(N)=O)c1 (single isomer, unassigned) [Example 3-2]
EC50 ([1]; 20 hours): > 100 µM
IC50 [2]: 1.64 µM
EC50 ([3]; 20 hours): > 100 µM
IC50 [4]: 40.9 µM

C=C1[C@H]2OP(=O)(S)OC[C@H]3O[C@@H](n4cnc5c(N)ncnc54)[C@H](F)[C@@H]3OP(=O)(S)OC[C@H]1O[C@H]2c1ccnc(C(N)=O)c1 (single isomer, unassigned) [Example 3-4]
EC50 ([1]; 20 hours): 7.4 µM
IC50 [2]: 0.09 µM
EC50 ([3]; 20 hours): 19.3 µM
IC50 [4]: 1.21 µM

CNC(=O)c1cc([C@@H]2O[C@@H]3COP(=O)(S)O[C@H]4[C@@H](F)[C@H](n5cnc6c(N)ncnc65)O[C@@H]4COP(=O)(S)O[C@@H]2[C@@H]3O)ccn1 (single isomer, unassigned) [Example 2-1]
EC50 ([1]; Homo sapiens, THP1-Dual, 20 h): > 100 µM
IC50 [2]: 0.6 µM
EC50 ([3]; Homo sapiens, THP1-Dual, 20 h): > 100 µM
IC50 [4]: 10.3 µM

NC(=O)c1cc([C@@H]2O[C@@H]3COP(=O)(S)O[C@H]4[C@@H](F)[C@H](n5cnc6c(N)ncnc65)O[C@@H]4COP(=O)(S)O[C@@H]2[C@@H]3F)ccn1 (single isomer, unassigned) [Example 4-2]
EC50 ([1]; 20 hours): 0.37 µM
IC50 [2]: 0.03 µM
EC50 ([3]; 20 hours): 1.32 µM
IC50 [4]: 0.09 µM

C=C1[C@H]2OP(=O)(S)OC[C@H]3O[C@@H](n4cnc5c(N)ncnc54)[C@H](F)[C@@H]3OP(=O)(S)OC[C@H]1O[C@H]2c1ccnc(C(N)=O)c1 (single isomer, unassigned) [Example 3-1]
EC50 ([1]; 20 hours): 9.23 µM
IC50 [2]: 0.04 µM
EC50 ([3]; 20 hours): 22.6 µM
IC50 [4]: 0.78 µM

NC(=O)c1cc([C@@H]2O[C@@H]3COP(=O)(S)O[C@H]4[C@@H](F)[C@H](n5cnc6c(N)ncnc65)O[C@@H]4COP(=O)(S)O[C@@H]2[C@@H]3F)ccn1 (single isomer, unassigned) [Example 4-1]
EC50 ([1]; 20 hours): 19 µM
IC50 [2]: 0.05 µM
EC50 ([3]; 20 hours): 57.1 µM
IC50 [4]: 0.66 µM

NC(=O)c1cc([C@@H]2O[C@@H]3COP(=O)(S)O[C@H]4[C@@H](F)[C@H](n5cnc6c(N)ncnc65)O[C@@H]4COP(=O)(S)O[C@@H]2[C@@H]3O)ccn1 (single isomer, unassigned) [Example 1-1]
EC50 ([1]; Homo sapiens, THP1-Dual, 20 h): 4.94 µM
IC50 [2]: 0.01 µM
EC50 ([3]; Homo sapiens, THP1-Dual, 20 h): 8.05 µM
IC50 [4]: 0.09 µM

NC(=O)c1cc([C@@H]2O[C@@H]3COP(=O)(S)O[C@H]4[C@@H](F)[C@H](n5cnc6c5ncn5ccnc65)O[C@@H]4COP(=O)(S)O[C@@H]2[C@@H]3O)ccn1 (single isomer, unassigned) [Example 5-2]
EC50 ([1]; Homo sapiens, THP1-Dual, 20 h): 0.14 µM
IC50 [2]: 14 µM
EC50 ([3]; Homo sapiens, THP1-Dual, 20 h): 0.38 µM
IC50 [4]: 93.4 µM

C=C1[C@H]2OP(=O)(S)OC[C@H]3O[C@@H](n4cnc5c(N)ncnc54)[C@H](F)[C@@H]3OP(=O)(S)OC[C@H]1O[C@H]2c1ccnc(C(N)=O)c1 (single isomer, unassigned) [Example 3-3]
EC50 ([1]; 20 hours): > 100 µM
IC50 [2]: 1.03 µM
EC50 ([3]; 20 hours): > 100 µM
IC50 [4]: 14.4 µM

CNC(=O)c1cc([C@@H]2O[C@@H]3COP(=O)(S)O[C@H]4[C@@H](F)[C@H](n5cnc6c(N)ncnc65)O[C@@H]4COP(=O)(S)O[C@@H]2[C@@H]3O)ccn1 (single isomer, unassigned) [Example 2-4]
EC50 ([1]; 20 hours): > 100 µM
IC50 [2]: 4.85 µM
IC50 [4]: 92.3 µM
